1 compound from US20050289665A1, “Method for disinfecting seed” (priority 2004, published 2005) can be followed below.

Each structure is given as a SMILES string. Where two headings read alike, the source gives them in different places.

Data set [1] concerns microbial contaminants on the seeds. As to conditions: loblolly pine, 30% H2O2 15 minutes; for contamination of whole seed: TSYG broth at 30° C. The protocol: Methods: The following disinfection treatment was used for loblolly pine seed: • (1) Seed was placed in a tea strainer (about 100 seed/strainer) and soaked in deionized water for one hour with agitation; • (2) The seed in the tea strainer was soaked in a 10% solution of Liquinox (VWR Scientific) for one hour with agitation; • (3) The seed in the tea strainer was soaked in 30% H2O2 on a rotary shaker in a fume hood for 15 minutes; • (4) The seed in the tea strainer was rinsed 8 times for 10 minutes each in sterile water in a laminar flow hood; • (5) The seed in the tea strainer was hydrated in sterile water for 24 hours in a laminar flow hood; and • (6) The seed in the tea strainer was rinsed three times with sterile water for 10 minutes each.
After disinfection and hydration, seed were removed from the tea strainers and placed on a sterile Petri plate. Seed were individually removed with surface-sterilized latex gloves, cracked using autoclaved Vice-Grips, and placed in sterile quadrant Petri plates (2 seeds/quadrant) containing a drop of sterile water to avoid dehydration before dissection. After dissection, 50 whole seed and 50 dissected embryos were incubated in TSYG broth (Trypticase Soy Broth 30 g/l, Yeast Extract 5 g/l, Glucose 10 g/l, and—for a solid Petri plate or agar slant—Agar 15 g/l) and examined on a daily basis for signs of contamination during an eight week incubation period at 30° C.

The test system is the same in data set [2]. As to the kind of experiment: Contamination of dissected embryos after disinfection of loblolly pine seed (Example 5). It counts as cell-based. As to conditions: treatment 1: 30% hydrogen peroxide 15 min, vacuum, day 24 after dissection. The protocol:
(§1) Methods: The first treatment was identical to the first treatment (hydrogen peroxide) described in EXAMPLE 4, and the second treatment was identical to the fifth treatment ([…]) described in EXAMPLE 4. Seed coats were cracked and removed, and the de-coated seeds were placed in sterile glass Petri plates (one plate/treatment) containing wet filter paper until dissection. Dissection was performed in quadrant Petri plates. A maximum of four seed were dissected per quadrant. […] Organ lengths and normalcy were assessed after 24 days on the medium.

Another data set relates to loblolly pine seed. As to the kind of experiment: Germination of dissected embryos on medium 185 (normalcy, organ lengths, epicotyl presence) after disinfection of loblolly pine seed (Example 5). As to conditions: treatment 1: 30% hydrogen peroxide 15 min, vacuum, day 24 after dissection. How it is done:
as §1

As for `OO` [hydrogen peroxide], the “contamination of whole seed” value in data set [1] (after eight weeks of incubation) came to 68%. For the same compound, in data set [1] (by the third day of incubation, 4 out of 50 whole seed), the “contamination of whole seed” value was 8%. For the same compound, in data set [1] (TSYG broth, eight week incubation at 30° C.), the “contamination of dissected embryos” value is “no contamination”. Besides, the “Contamination (%)” value in data set [2] worked out at 0%. In the data set on loblolly pine seed, the “Cotyledon Length (cm)” value amounted to 0.7 cm, the “Epicotyl Presence (%)” value stood at 65.7%, the “Hypocotyl Length (cm)” value is 1.2 cm and the “Normalcy (%)” value was found to be 85.7%. In the data set with loblolly pine seed, the “Radicle Length (cm)” value worked out at 3.4 cm.
